According to ChEMBL document CHEMBL3797079, “Synergistic reduction of HIV-1 infectivity by 5-azacytidine and inhibitors of ribonucleotide reductase” (Bioorg Med Chem, 2016):
Calls of active or inactive are those of the source. The rule behind the calls is not given here.

Experiments:
U373-MAGI [1] = test: Effect on 5-aza-dCTP level in human U373-MAGI cells at 200 uM preincubated for 2 hrs followed by 5-aza-dC addition measured after 4 hrs by LC-MS/MS analysis; format: functional, cell-based
U373-MAGI [2] = test: Reduction in dRGU-TP level in human U373-MAGI cells at 200 uM preincubated for 2 hrs followed by 5-aza-C addition measured after 4 hrs by LC-MS/MS analysis; format: functional, cell-based
[3] = test system: Human immunodeficiency virus 1; test: Potentiation of 5-Aza-C-induced antiviral activity against VSV-G pseudotyped HIV-1 NL4-3 infected in human U373-MAGI cells assessed as reduction in viral infectivity at 50 uM preincubated for 2 to 8 hrs followed by 5-Aza-C addition for 2 hrs and subsequent viral infection measured at 72 hrs post infection by flow cytometric analysis; format: functional, organism-based
[4] = test system: Human immunodeficiency virus 1; test: Potentiation of 5-Aza-dC-induced antiviral activity against VSV-G pseudotyped HIV-1 NL4-3 infected in human U373-MAGI cells assessed as Pol mutation at 50 uM incubated for 4 hrs preinfection followed by 5-Aza-C addition for 2 hrs preinfection and subsequent viral infection measured at 72 hrs post infection by illumina sequencing method (reference value: 18.5%); format: functional
U373-MAGI [5] = test: Reduction in dCTP level in human U373-MAGI cells at 200 uM preincubated for 2 hrs followed by 5-aza-dC addition measured after 4 hrs by LC-MS/MS analysis relative to 5-aza-dC; format: functional, cell-based
[6] = test system: Human immunodeficiency virus 1; test: Antiviral activity against VSV-G pseudotyped HIV-1 NL4-3 infected in human U373-MAGI cells assessed as increase in frequency of A to C transversion at 50 uM incubated for 4 hrs prior to infection measured at 72 hrs post infection by illumina sequencing method relative to control; format: functional

`Oc1ccc(/C=C/c2cc(O)cc(O)c2)cc1` [RESVERATROL] was tested, and the Activity (U373-MAGI [1]) was “inactive”, the Activity (U373-MAGI [2]) was “Active” and the Activity [3] was “Active”. The Activity [4] was 18.9%, the Activity (U373-MAGI [5]) was “Active” and the “fold change (FC)” value [6] was 1.8.
